≈ marks a conversion by molar mass, not a printed value.
Tested on: Mycobacterium tuberculosis
Assay: Antitubercular activity against multidrug-resistant Mycobacterium tuberculosis after 6 weeks
Assay type: functional

Row | Structure (SMILES) | MIC [µg/mL]
1 | CC(=O)N1N=C(c2ccccc2)CC1c1cc(Cl)c2oc(S)nc2c1 (stereo not given) | 25 (≈ 67.2 µM)
2 | CC(=O)N1N=C(c2ccccc2Br)CC1c1cc(Cl)c2oc(S)nc2c1 (stereo not given) | 12.5 (≈ 27.7 µM)
3 | COc1cc(C2CC(c3ccccc3)=NN2C(C)=O)cc(N)c1O (stereo not given) | 25 (≈ 76.8 µM)
4 | COc1cc(C2CC(c3ccc(Cl)cc3Cl)=NN2C(C)=O)cc(N)c1O (stereo not given) | 12.5 (≈ 31.7 µM)
5 | COc1cc(C2CC(c3ccc(F)cc3)=NN2C(C)=O)cc(N)c1O (stereo not given) | 25 (≈ 72.8 µM)
6 | COc1cc(C2CC(c3ccccc3Br)=NN2C(C)=O)cc(N)c1O (stereo not given) | 3.25 (≈ 8.04 µM)
7 | CC(=O)N1N=C(c2ccccc2)CC1c1ccc(O)c(N)c1 (stereo not given) | 25 (≈ 84.6 µM)
8 | CC(=O)N1N=C(c2ccccc2Br)CC1c1ccc(O)c(N)c1 (stereo not given) | 12.5 (≈ 33.4 µM)
9 | CC(=O)N1N=C(c2ccccc2)CC1c1cc(N)c(O)c(Cl)c1 (stereo not given) | 25 (≈ 75.8 µM)
10 | CC(=O)N1N=C(c2ccccc2Br)CC1c1cc(N)c(O)c(Cl)c1 (stereo not given) | 25 (≈ 61.2 µM)
11 | COc1cc(C2CC(c3ccccc3)=NN2C(C)=O)cc2nc(N)oc12 (stereo not given) | 6.25 (≈ 17.8 µM)
12 | COc1cc(C2CC(c3ccc(Cl)cc3Cl)=NN2C(C)=O)cc2nc(N)oc12 (stereo not given) | 12.5 (≈ 29.8 µM)
13 | COc1cc(C2CC(c3ccc(F)cc3)=NN2C(C)=O)cc2nc(N)oc12 (stereo not given) | 25 (≈ 67.9 µM)
14 | COc1cc(C2CC(c3ccccc3Br)=NN2C(C)=O)cc2nc(N)oc12 (stereo not given) | 25 (≈ 58.2 µM)
15 | CC(=O)N1N=C(c2ccccc2)CC1c1ccc2oc(N)nc2c1 (stereo not given) | 25 (≈ 78 µM)
16 | CC(=O)N1N=C(c2ccccc2Br)CC1c1ccc2oc(N)nc2c1 (stereo not given) | 12.5 (≈ 31.3 µM)
17 | CC(=O)N1N=C(c2ccccc2)CC1c1cc(Cl)c2oc(N)nc2c1 (stereo not given) | 25 (≈ 70.5 µM)
18 | CC(=O)N1N=C(c2ccccc2Br)CC1c1cc(Cl)c2oc(N)nc2c1 (stereo not given) | 25 (≈ 57.6 µM)
19 | COc1cc(C2CC(c3ccccc3)=NN2C(C)=O)cc2nc(S)oc12 (stereo not given) | 12.5 (≈ 34 µM)
20 | COc1cc(C2CC(c3ccc(Cl)cc3Cl)=NN2C(C)=O)cc2nc(S)oc12 (stereo not given) | 12.5 (≈ 28.6 µM)
21 | COc1cc(C2CC(c3ccc(F)cc3)=NN2C(C)=O)cc2nc(S)oc12 (stereo not given) | 6.25 (≈ 16.2 µM)
22 | COc1cc(C2CC(c3ccccc3Br)=NN2C(C)=O)cc2nc(S)oc12 (stereo not given) | 25 (≈ 56 µM)
23 | CC(=O)N1N=C(c2ccccc2)CC1c1ccc2oc(S)nc2c1 (stereo not given) | 25 (≈ 74.1 µM)
24 | CC(=O)N1N=C(c2ccccc2Br)CC1c1ccc2oc(S)nc2c1 (stereo not given) | 6.25 (≈ 15 µM)
25 | NNC(=O)c1ccncc1 [ISONIAZID] | 6.25 (≈ 45.6 µM)

Reference: ChEMBL document CHEMBL2424561, “Discovery of new antitubercular agents by combining pyrazoline and benzoxazole pharmacophores: design, synthesis and insights into the binding interactions” (2013)
